Measured values from patent US20170022288A9, “PANCREATIC CANCER ASSOCIATED ANTIGEN, ANTIBODY THERETO, AND DIAGNOSTIC AND TREATMENT METHODS” (priority 2003, published 2017).

How the values were obtained:
BMRPA1 cells [1] = experiment: Anchorage independent colony formation on agar; type: cell-based, rat; conditions: NNK-treated BMRPA1 cells; days after seeding 9; 30 sequential 1 mm^2 fields, average of 5 TCFs ± SEM
Description: Aliquots of 4 ml of 0.5% agar-medium mixture (agar was autoclaved in 64 mL H2O, cooled in a water bath to 50° C., and added to 15 mL 5× cRPMI, 19 mL FBS and 1 mL P/S) were poured into 25 cm^2 TCFs and allowed to harden overnight at 4° C. Prior to plating the cells, the flasks were placed in the COT-Air incubator for up to 5 h at 37° C. to facilitate equilibration of pH and temperature. Cells were collected by Trypsin-EDTA, 0.1 mL, of cell suspension (40000/mL cells in cRPMI) was dispersed carefully over the agar surface of each flask and the cultures were returned to the 37° C. incubator with […]-5% CO2. After 24 h, the agar-coated TCFs were inverted to allow drainage of excess medium. The cultures were examined microscopically after 9 d and 14 d for growth of colonies using a Zeiss inverted microscope.
The ability of the cloned BMRPA.1NNK and untreated BMRPA1 cells to grow on agar was examined by dispersing cells at low density onto soft agar (see Example 1).

BMRPA1 cells [2] = experiment: Cell growth at reduced serum (crystal violet assay); type: cell-based, rat; conditions: NNK-transformed vs untreated BMRPA1 cells, 12 days
Description: To measure cell growth at 10% FBS, cells were seeded at 5×10^4 cell/60 mm TCD containing 4 ml of cRPMI-10% FBS. Every 3 d, triplicate TCDs were removed for each cell line under study, the cells were released with trypsin-EDTA, and counted in the presence of trypan blue. To assess the effect of cRPMI containing reduced FBS concentrations on cell growth, equal numbers (1.5×10^4 cell/ml/well) of NNK-treated and untreated BMRPA1 cells were seeded in triplicate wells of 24 well TCDs. The cells were allowed to adhere overnight in cRPMI 10% FBS, washed with PBS, and reincubated with cRPMI containing the indicated % FBS. Cell growth was evaluated by a modification of the crystal violet relative proliferation assay (Serrano, 1997). Briefly, the cells were washed with PBS, fixed in 10% buffered formalin followed by rinsing with distilled water. The cells were then stained with 0.1% Crystal Violet for 30 min at room temperature (RT), washed with dH2O, and dried. The cell-associated dye was extracted with 1 ml 10% acetic acid, aliquots were diluted 1:2 with dH2O, and transferred to 96-well microtiter plates for OD600nm measurements. The cell growth was calculated relative to the OD600nm values read at 24 h. […]

Nu/Nu mice = experiment: Tumorigenicity in Nu/Nu mice; type: in vivo, mouse; conditions: 10^7 cloned BMRPA1.NNK cells injected s.c.
Description: Nu/Nu mice (7 wks of age) were obtained from Harlan laboratories (Indianapolis, Ind.). The cells used for injection were released by Trypsin-EDTA, washed in cRPMI, and resuspended in PBS at 10^8 cells/mL. Each mouse tested was injected subcutaneously (s.c.) with 0.1 ml of this cell suspension. The animals were inspected for tumor development daily during the first 4 weeks, and thereafter at weekly intervals. Small pieces of the tumors (1-2 mm.) were cut from the core of the tumors and placed in 4% pafaformaldehyde overnight at 4 C. The tissue was then washed in PBS, and placed in 30% sucrose for another 24 h. Sections of tumor tissue frozen in Lipshaw embedding matrix (Pittsburgh, Pa.) were made with a Jung cryostat (Leica), placed on gelatin coated slides, and stored at −20 C. H&E staining was done according to standard procedures.
Cells growing on agar often have the ability to grow as tumors in Nu/Nu mice (Shin et al., 1975; Colburn et al., 1978). The ability of cells to grow in Nu/Nu mice as tumors is believed to be a strong indication of malignant transformation (Chung, 1986). Consequently, 10^7 cloned, live BMRPA1.NNK cells were injected subcutaneously (s.c.) in the posterior flank region of Nu/Nu mice. Another group of mice was injected s.c. under similar conditions with untransformed BMRPA1 cells. […]

BMRPA1 cells [3] = experiment: BrdU incorporation (FACS); type: cell-based, rat; conditions: NNK-treated vs untransformed BMRPA1 cells
Description: Cells (5×10^4) were plated in 60 mm TCD, and allowed to grow in cRPMI-10% FBS. […] Briefly, 10^6 trypsin-EDTA released cells were washed twice in PBS-1% BSA, fixed in 70% ethanol for 30 min, and resuspended in RNAase A (0.1 mg/mL) for 30 min at 37° C. After washing the cells, their DNA was denatured with 2N HCl/Triton X-100 for 30 min, and neutralized with 0.1 M Na2B4O7.10H2O, pH 8.5. The cells were then washed in PBS-1% BSA with 0.5% Tween 20, and resuspended in 50 uL of 0.5% Tween in PBS-1% BSA solution with 20 uL of FITC-AntiBrdU antibody. After 45 min at 37° C., the cells were washed, resuspended in 1 mL of Na Citrate buffer containing Propidium Iodide (0.005 mg/mL) and RNAase A (0.1 mg/mL). Fluorescent activated cell sorting or flow cytometry (FACS) analysis to detect the incorporated BrdU and PI staining was performed by using a FACScan analyzer from Becton Dickinson Co. equipped with an Argon ion laser using excitation wavelength of 488 nm. Data analysis was performed using the LYSYS II program.
The measurement of BrdU incorporation in RNAase treated cells is routinely used to assess DNA synthesis during the S phase of proliferating cells (Alberts B., Johnson, A., Lewis, J., Raff, M., Roberts, K., Walter, P., 2002, Molecular Biology of the Cell. Garland Science, Taylor and Francis, 4th ed., NY). […]

BMRPA1 cells [4] = experiment: NNK exposure: effects on BMRPA1 morphology; type: cell-based, rat; conditions: for cytotoxic changes: one 16 hour exposure
Description: All preparations of the carcinogen-containing media were made in a separate laboratory within a NCI-designed and certified chemical hood using prescribed protective measures. 4-(N-nitrosmethylamino)-1-(3-pyridyl)-1-butanone (NNK, American Health Foundation, N.Y.) was prepared as a stock solution of 10 mg NNK in PBS and added to FBS-free cRPMI to make final concentrations of 100, 50, 10, 5, and 1 μg/mil. BMRPA1 cells at passage 36 (p36) were seeded at 10^5/60 mm TCDs and allowed to grow for 6 d. At this time the medium was removed, and the cells were washed 2× with prewarmed (37° C.), FBS-free cRPMI before they were treated with FBS-free cRPMI (4 ml/TCD) containing the different concentrations of NNK. A 6th set of TCDs containing BMRPA1 cells was incubated in FBS-free cRPMI without NNK and was used as controls. The eight TCDs used for each of the six sets of different culture conditions were returned to the 37° C. and 95% air-5% CO2 incubator. After 16 h, the NNK-containing medium was removed from all TCDs and the cells were washed 3× with PBS followed by addition of fresh cRPMI-10% FBS (4 ml/TCD), and the incubation continued. Control cultures without NNK were processed in parallel. The cells were fed every 2 d by replacing ½ of the spent medium with fresh cRPMI-10% FBS. At full confluency the cells were collected from all TCDs, the cells in each group were pooled, and passaged at 2×10^4 into fresh TCDs.
With the purpose of determining whether such changes are induced by a single exposure to NNK and at relatively small NNK concentrations, BMRPA1 cells were exposed for one 16 hour period to serum free medium containing 100, 50, 10, 5, and 1 μg NNK/mL. […] Furthermore, the gradual pace of these changes at 1 μg/mL allows a passage by passage study of both early and late events in the process of NNK-induced transformation. Thus, the results presented below were obtained with BMRPA1 cells exposed once for 16 h to 1 μg NNK/mL FBS-free medium.

CN(CCCC(=O)c1cccnc1)N=O [NNK, 4-(methyl-nitrosamino)-1-(3-pyridyl)-1-butanone]
# of colonies* formed <50 cells (BMRPA1 cells [1]): 14 | # of colonies* formed >50 cells (BMRPA1 cells [1]): 15.8 ± 2.5 | # of colonies* formed Total (BMRPA1 cells [1]): 17.3 ± 5.2 | cell growth at 1%, 5%, and 10% FBS (BMRPA1 cells [2]): selective growth advantage | # of mice with metastasis/# of mice tested (Nu/Nu mice): 1/6 | # of mice with tumor/# of mice tested (Nu/Nu mice): 3/6 | proliferative changes (BrdU incorporation) (BMRPA1 cells [3]): permanent hyperproliferative changes | phenotypical changes (neoplastic transformation) (BMRPA1 cells [4]; 1 μg/ml, slower rate, over several weeks): phenotypical changes characteristic of neoplastic transformation | cytotoxic changes (BMRPA1 cells [4]; 5, and 1 μg NNK/mL): considerably less | phenotypical changes (neoplastic transformation) (BMRPA1 cells [4]; 100, 50, 10 μg NNK/ml, within a week): phenotypical changes indicative of neoplastic transformation | cytotoxic changes (BMRPA1 cells [4]; larger concentrations (100, 50, 10 μg NNK/mL), serum free medium): cylotoxic changes
